Assay results reported in patent US20080280879A1, “SUBSTITUTED HETEROCYCLIC DERIVATIVES AND THEIR PHARMACEUTICAL USE AND COMPOSITIONS” (priority 2007, published 2008).
≈ marks a conversion by molar mass, not a printed value. Where “and” joins values, the source holds several entries; their conditions need not be identical. Identical values can stand only once.

Columns and labels:
Type in all cases: cell-based, Staphylococcus aureus
Staph aureus 2811 = assay: MIC, microtiter broth dilution (CLSI M7-A7), Assay 1, Table 12 column D, no serum; settings: for MIC, column D: Staph aureus 2811, Assay 1, no serum
In short: (§1)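 Staphylococcus aureus susceptibility is measured by CLSI M7-A7 broth microdilution in microtiter trays. For serum testing, bacteria are inoculated into Mueller-Hinton Broth containing 50% pooled inactivated human serum. The MIC in μg/ml is the lowest concentration preventing visible growth.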

Staph aureus 1031 [1] = assay: MIC, microtiter broth dilution (CLSI M7-A7), Assay 2, Table 12 column F, no serum; settings: for MIC, column F: Staph aureus 1031, Assay 2, no serum; for MIC: Staphylococcus aureus, 1031, Staph aureus 1031, Assay 2, no serum
Description: (§2) The assays described herein include a panel of bacterial isolates of Staphylococcus aureus. Assay 1 comprises the strains noted in Columns A through E, and Assay 2 comprises the strains noted in Columns F through H. The assays are performed in microtiter trays according to Methods for Dilution Antimicrobial Susceptibility Tests for Bacteria that Grow Aerobically; Approved Standard-7th edition (M7-A7) and interpreted according to the Performance Standards for Antimicrobial Susceptibility Testing; 16th Informational Supplement (M100-S16) published by Clinical Laboratory Standards Institute (CLSI). The antibacterial activity is presented in the form of a minimum inhibitory concentration (MIC) value in μg/ml format. The MIC value represents the lowest concentration of drug measured which prevented macroscopically visible growth under the conditions and specific doses tested. The compounds were initially dissolved in DMSO as 30 mM stocks and diluted accordingly to adjust to a concentration of 10 mg/ml or the compounds were dissolved in DMSO at a concentration of 10 mg/ml. For assessment of activity in the presence of human serum, S. aureus 1146 and S. aureus 1031 were inoculated into Mueller-Hinton Broth with 50% pooled inactivated human serum. In some cases, compounds were tested more than once in a particular assay. Where noted, the MIC value shown in Table 12 represents the geometric mean of the data from multiple runs.
(§3) It should be understood that the data in columns A-H represents MIC data in μg/ml and the notation “<=” means ‘less than or equal to’.

Staph aureus 1146 [2] = assay: MIC in Mueller-Hinton Broth with 50% pooled inactivated human serum, Assay 1, Table 12; settings: for MIC, column C: Staph aureus 1146, Assay 1, 50% human serum
In short: as §1

Staph aureus 2810 = assay: MIC, microtiter broth dilution (CLSI M7-A7), Assay 2, Table 12 column H, no serum; settings: for MIC, column H: Staph aureus 2810, Assay 2, no serum; for MIC: Staphylococcus aureus, 2810, Staph aureus 2810, Assay 2, no serum
Description: as §2, §3

Staph aureus 1146 [3] = assay: MIC, microtiter broth dilution (CLSI M7-A7), Assay 1, Table 12 column B, no serum; settings: for MIC, column B: Staph aureus 1146, Assay 1, no serum
In short: as §1

Staph aureus 1031 [4] = assay: MIC in Mueller-Hinton Broth with 50% pooled inactivated human serum, Assay 2, Table 12 column G; settings: for MIC, column G: Staph aureus 1031, Assay 2, 50% human serum; for MIC: Staphylococcus aureus, 1031, Staph aureus 1031, Assay 2, 50% human serum
Description: as §2, §3

Staph aureus 1095 MRSA = assay: MIC, microtiter broth dilution (CLSI M7-A7), Assay 1, Table 12 column A, no serum; settings: Assay 1, no serum; for MIC: Staphylococcus aureus, MRSA
In short: as §1

Staph aureus 2812 = assay: MIC, microtiter broth dilution (CLSI M7-A7), Assay 1, Table 12 column E, no serum; settings: for MIC, column E: Staph aureus 2812, Assay 1, no serum; for MIC: Staphylococcus aureus, 2812, Staph aureus 2812, Assay 1, no serum
In short: as §1

Molecule	MIC, column D (Staph aureus 2811)	MIC, column F (Staph aureus 1031 [1])	MIC, column C (Staph aureus 1146 [2])	MIC, column H (Staph aureus 2810)	MIC, column B (Staph aureus 1146 [3])	MIC, column G (Staph aureus 1031 [4]) [µg/mL]	MIC, column A (Staph aureus 1095 MRSA) [µg/mL]	MIC, column E (Staph aureus 2812) [µg/mL]	MIC (Staph aureus 2811; Staphylococcus aureus, 2811, Staph aureus 2811, Assay 1, no serum) [µg/mL]	MIC (Staph aureus 1031 [1]) [µg/mL]	MIC (Staph aureus 1146 [2]; Staphylococcus aureus, 1146, Staph aureus 1146, Assay 1, 50% human serum, read-out: MIC, column C) [µg/mL]	MIC (Staph aureus 2810) [µg/mL]	MIC (Staph aureus 1146 [3]; Staphylococcus aureus, 1146, Staph aureus 1146, Assay 1, no serum) [µg/mL]	MIC (Staph aureus 1031 [4]) [µg/mL]	MIC (Staph aureus 1095 MRSA) [µg/mL]	MIC (Staph aureus 2812) [µg/mL]
4-{[2-(3-chloro-6-methoxyquinolin-4-yl)ethyl]amino}-1-[(2-phenylcyclopropyl)ethyl]zepane-4-carboxylic acid [Example 151]	2 µg/mL	2 µg/mL	32 µg/mL	2 µg/mL	4 µg/mL	64	8	4	–	–	–	–	–	–	–	–
4-{[2-(3-chloro-6-methoxyquinolin-4-yl)ethyl]mino}-1-(3-phenylcyclobutyl) azepane-4-carboxylic acid [Example 152]	<=.0625 μg/ml	<=.0625 μg/ml	1 µg/mL and 2 µg/mL	0.125 µg/mL	0.125 µg/mL	2	–	–	–	–	–	–	–	–	–	–
COC(=O)[C@H]1CN(C[C@@H]2C[C@H]2c2ccccc2)CC[C@H]1CCC(O)c1ccnc2ccc(OC)cc12 (mixture of isomers) [Example 5, methyl (3R,4R)-4-[3-hydroxy-3-(6-methoxyquinolin-4-yl)propyl]-1-{[(trans)-2-phenylcyclopropyl]methyl}piperidine-3-carboxylate]	–	–	–	–	–	–	–	–	8	4	32	8	4	64	2	4
COc1ccc2nccc(C(O)CC[C@@H]3CCN(C4CC(c5ccccc5)C4)C[C@@H]3C(=O)O)c2c1 (single isomer, unassigned) [Example 2]	<=.0884 μg/ml	0.125 µg/mL (≈ 0.263 µM)	0.4629 µg/mL (≈ 0.975 µM)	<=.0625 μg/ml	<=.0625 μg/ml	0.5 (≈ 1.05 µM)	–	–	–	–	–	–	–	–	0.25 (≈ 0.527 µM)	0.158 (≈ 0.332 µM)
COc1ccc2nccc(C(O)CC[C@@H]3CCN(C4CC(c5ccccc5)C4)C[C@@H]3C(=O)O)c2c1 (single isomer, unassigned) [Example 3]	<=.25 μg/ml	0.5 µg/mL (≈ 1.05 µM)	1.7818 µg/mL (≈ 3.75 µM)	0.5 µg/mL (≈ 1.05 µM)	<=.1768 μg/ml	4 (≈ 8.43 µM)	0.25 (≈ 0.527 µM)	0.25 (≈ 0.527 µM)	–	–	–	–	–	–	–	–
COc1ccc2nccc(C(O)CC[C@@H]3CCN(C4CC(c5ccccc5)C4)C[C@@H]3C(=O)O)c2c1 (single isomer, unassigned) [Example 4]	1 µg/mL (≈ 2.11 µM)	0.5 µg/mL (≈ 1.05 µM)	4 µg/mL (≈ 8.43 µM)	0.5 µg/mL (≈ 1.05 µM)	1 µg/mL (≈ 2.11 µM)	–	2 (≈ 4.21 µM)	1 (≈ 2.11 µM)	–	–	–	–	–	4 (≈ 8.43 µM)	–	–
COc1ccc2nccc(C(O)CC[C@@H]3CCN(CC4(O)Cc5ccccc5C4)C[C@@H]3C(=O)O)c2c1 (stereo partly drawn) [Example 84, (3R,4R)-1-((2-hydroxy-2,3-dihydro-1H-inden-2-yl)methyl)-4-(3-hydroxy-3-(6-methoxyquinolin-4-yl)propyl)piperidine-3-carboxylic acid]	–	–	–	–	–	–	–	–	–	> 64	–	> 64	–	> 64	–	–
COc1ccc2nccc(C(O)CC[C@@H]3CCN(C[C@@H]4C[C@H]4c4ccccc4)C[C@@H]3C(=O)O)c2c1 (stereo partly drawn) [Example 85, (3R,4R)-4-[3-hydroxy-3-(6-methoxyquinolin-4-yl)propyl]-1-{[(tans)-2-phenylcyclopropyl]methyl}piperidine-3-carboxylic acid]	1.4142 µg/mL (≈ 2.98 µM)	2 µg/mL (≈ 4.21 µM)	5.6568 µg/mL (≈ 11.9 µM)	2 µg/mL (≈ 4.21 µM)	1.4142 µg/mL (≈ 2.98 µM)	4 (≈ 8.43 µM)	4 (≈ 8.43 µM)	2 (≈ 4.21 µM)	–	–	–	–	–	–	–	–
COc1ccc2nccc(C(O)CC[C@@H]3CCN(CC4CCc5nc(C(C)C)ncc5C4)C[C@@H]3C(=O)O)c2c1 (stereo partly drawn) [Example 116, (3R,4R)-4-[3-hydroxy-3-(6-methoxyquinolin-4-yl)propyl]-1-[(2-isopropyl-5,6,7,8-tetrahydroquinazolin-6-yl)methyl]piperidine-3-carboxylic acid]	–	–	–	–	–	–	–	–	–	> 64	–	> 64	–	> 64	–	–
